Starred links: 1 amine or outer side, 2 acyl side, 3 side chain; linkers in the order of their positions; H or OH if unused. Positions of bridges follow the written chain, without caps; N, C: chain ends. Non-standard residues stand in square brackets, D forms with d. Residues, ends and D or L forms follow the SMILES beside them. Phe(3-OCH2COOH) = N[C@@H](Cc1cccc(OCC(=O)O)c1)C(=O)O; Phe(4-COOH) = N[C@@H](Cc1ccc(C(=O)O)cc1)C(=O)O; Gly(N(CH2)3COOH) = O=C(O)CCCNCC(=O)O; X1 = CCCCCCC[C@H](N[*:1])C(=O)[*:2]; NMeF = CN[C@@H](Cc1ccccc1)C(=O)O; NMeA = CN[C@@H](C)C(=O)O
Assays:
[1] = molecular target: T1, GDF-11 (Homo sapiens, UniProt O95390); experiment: Reporter gene assay for myostatin signaling in HEK-Blue TGF-β Cells, GDF-11; assay type: cell-based; settings: GDF-11 3 ng/mL
T1 construct: purchased R&D systems 1958-GD-G8/CF
T1 sequence (O95390 299-407): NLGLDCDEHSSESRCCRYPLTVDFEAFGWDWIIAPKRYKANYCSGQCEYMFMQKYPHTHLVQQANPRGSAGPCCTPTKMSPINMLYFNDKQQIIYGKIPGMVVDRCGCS
Protocol: In this Example, the in vitro activity of the peptide Myostatin_99_v145 (SEQ ID NO: 30) was evaluated using a reporter gene assay for myostatin signaling.
HEK-Blue (trademark) TGF-β Cells (hkb-tgfbv2, InvivoGen) were cultured in DMEM High glucose GlutaMAX (10569010, Thermo) containing 10% FBS (Heat-inactivated FBS QUALIFIED, 10270-106, Gibco), […] Normocin (ant-nr-05, InvivoGen), […] Zeocin (ant-zn-05, InvivoGen), and 50 µg/mL Gentamicin (11980-14, Nacalai Tesque). The cultured HEK-Blue (trademark) TGF-β Cells were suspended in an assay medium containing DMEM High glucose GlutaMAX, 50 µg/mL Gentamicin, and 1% bovine serum albumin (A7030, Sigma). The cells were seeded at 4 × 10^4 cells/well onto a 96-well plate (356461, Corning), namely BioCoat poly-D-lysine multi-well plate, and allowed to stand for 30 min. […]
To each well of a UV-Star µClear 96-well (655801, Greiner), 180 µL of Detection buffer (prepared by diluting, with 17.64 mL of distilled water, 180 µL of QUANTI-Blue buffer and 180 µL of QUANTI-Blue solution) was dispensed. […] The plate was covered and incubated in a CO2 incubator for 3 to 5 hours, and absorbance was measured (Envision 2104, PerkinElmer, 620 nm/bp 40 nm). Based on the absorbance, IC50 values of the peptide were calculated using software (Prism 9, GraphPad).

[2] = molecular target: T1, GDF-11; experiment: Reporter gene assay for myostatin signaling in HepG2 cell line, Evaluation Procedure (1), GDF-11 inhibition; assay type: cell-based; settings: Method A: GDF-11 10 ng/mL; read-out: IC50 (Luciferase) GDF-11 HepG2
Summary of the method: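 IC50 derived from One-Glo luciferase luminescence after 20–24 h at 37 °C. Peptides titrated 4-fold at 0.006–100 nmol/L against myostatin or 0.12–2000 nmol/L against GDF-11 in HepG2 cells carrying a transfected CAGA12-luciferase reporter, kept in 0.1% BSA EMEM.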

## CCCCCCC[C@@H]1NC(=O)[C@H](Cc2ccccc2)N(C)C(=O)[C@H](CCCNC(=N)N)NC(=O)[C@H](Cc2ccc(C(=O)O)cc2)NC(=O)[C@H](Cc2cccc(OCC(=O)O)c2)NC(=O)[C@H](C)N(C)C(=O)[C@H]([C@@H](C)CC)NC(=O)[C@H](Cc2ccccc2)N(C)C(=O)[C@H](Cc2ccc(O)cc2)NC(=O)[C@H](Cc2c[nH]c3ccccc23)NC(=O)[C@H](C)NC(=O)CN(CCCC(=O)O)C(=O)CSC[C@H](C(=O)O)NC(=O)[C@H](Cc2ccccc2)N(C)C(=O)[C@H](C)N(C)C1=O [Myostatin_99_v145] ({CH2CO}-[Gly(N(CH2)3COOH)]AWY[NMeF]I[NMeA][Phe(3-OCH2COOH)][Phe(4-COOH)]R[NMeF][X1][NMeA][NMeF][dC]-OH; thioether N-15)
[1]; read-out: IC50 (nmol/L) GDF11
  IC50: 61.2 nmol/L
[1]; read-out: IC90 (nmol/L) GDF11
  IC90: 702 nmol/L
[2]
  IC50: 414 nM

— EP4786487A1, “PEPTIDE” (Peptidream Inc, priority 2023, dated 2025)
